# Entries after “also recorded” stand apart in the source; their conditions may differ.
# Legend:
# [1] = target: Rac 1 (Homo sapiens, UniProt P63000); conditions: Jackson et al., J Am Heart Assoc 2018; cited from earlier work
# [2] = test system: bladder wall collagen fibers; assay: Planar biaxial mechanical testing coupled with multiphoton microscopy of bladder wall; assay type: in vivo, rat; conditions: aged rats
# Protocol: Protocol 3: Planar biaxial mechanical testing coupled with multiphoton microscopy was performed on bladder wall specimens to assess bladder mechanical function while simultaneously observing changes in the collagen microstructure. Briefly, the unloaded intact bladder diameter (do) and meridional length (hv) were measured and used to calculate the unloaded bladder volume (V0) from the ellipsoid volume, V0=πd0^2h0/6. The intact bladders were then cut open longitudinally and trimmed into 6±1 mm×6±1 mm square specimens for mechanical testing with sides aligned in the in situ longitudinal and circumferential directions. Samples were then positioned in the custom-designed biaxial testing system and mechanically tested using fiducial markers on the sample to calculate stretch, defined as the ratio of distance between markers in sample when loaded and unloaded. A multiphoton microscope (OLYMPUS® FV1000 MPE) equipped with a Coherent Cheleon TiSapphire pulsed Laser was used to image the undulated (wavy) collagen fibers in the mounted samples without staining or fixation during loading (i.e., stretch) as per previously published methods. Stacks of 2D planar images were generated by imaging sequentially across the wall thickness. To avoid tissue damage while obtaining a large range of stretch, loading was stopped at the stretch where collagen fibers were visibly straightened (heretofore termed recruited). This was defined as the maximum stretch. Fiber tortuosity was measured by tracing collagen fibers across the 2D slices (Filament function in Imaris, Bitplane, Switzerland). Fiber arc length (s) and cord length (L) were determined for each fiber tracing and used to calculate the tortuosity. The tortuosity of an undulated or wavy fiber is, therefore, greater than one and approaches one as the fiber becomes fully straightened.
# Bi-axial Stretch Combined with Multi-Photon (MPM) Imaging: Planar biaxial mechanical testing coupled with multiphoton microscopy was performed on bladder wall specimens to assess bladder mechanical function while simultaneously observing changes in the collagen microstructure. Briefly, the unloaded intact bladder diameter (do) and meridional length (hv) were measured and used to calculate the unloaded bladder volume (V0) from the ellipsoid volume, V0=πd0^2h0/6. The intact bladders were then cut open longitudinally and trimmed into 6±1 mm×6±1 mm square specimens for mechanical testing with sides aligned in the situ longitudinal and circumferential directions. […] Fiber tortuosity was measured by tracing collagen fibers across the 2D slices (Filament function in Imaris, Bitplane, Switzerland). Fiber arc length (s) and cord length (L) were determined for each fiber tracing and used to calculate the tortuosity. […]
# [3] = test system: nitrotyrosine; assay: Western immunoblotting, nitrotyrosine; assay type: in vivo, rat; conditions: aged rats; oral 8-AG 5 mg/kg/day, 6 weeks
# Protocol: (§1) Western immunoblotting: One half of each bladder preparation was homogenized using Lysing Matrix D in a FastPrep 24 instrument (MP Biomedicals, Solon, Ohio) in HBSS (5 mM KCl, 0.3 mM KH2PO4, 138 mM NaCl, 4 mM NaHO3, 0.3 mM Na2HCO3, 0.3 mM Na2HPO4, 5.6 mM glucose and 10 mM Hepes, pH 7.4) containing complete protease inhibitor cocktail (1 tablet/10 ml, ROCHE®, Indianapolis, Ind.)) and phosphatase inhibitor cocktail (SIGMA®, 1:100). After centrifugation (13000 rpm; 15 min at 4° C.), the membrane protein fraction was prepared by suspending the membrane pellets in lysis buffer containing 0.3 M NaCl, 50 mM Tris-HCl (pH 7.6) and 0.5% Triton X-100 and the same concentration of protease inhibitors as above. The suspensions were incubated on ice and centrifuged (13000 rpm; 15 min at 4° C.). The protein concentrations of the combined supernatants were determined using the PIERCE® BCA protein assay (THERMO SCIENTIFIC®, Rockford, Ill.). […] As a loading control, total protein per sample was determined using Bio-Rad® Stain Free SDS-PAGE gel technology. UV-activated protein fluorescence was imaged on a CHEMIDOC® MP (BIO-RAD®). […] The volume (intensity) of each protein species was determined and normalized to total protein using Image Lab software (BIO-RAD®).
# [4] = test system: cleaved PARP; assay: Western immunoblotting, cleaved PARP; assay type: in vivo, rat; conditions: aged rats; oral 8-AG 5 mg/kg/day, 6 weeks
# Protocol: Western immunoblotting: One half of each bladder preparation was homogenized using Lysing Matrix D in a FastPrep 24 instrument (MP Biomedicals, Solon, Ohio) in HBSS (5 mM KCl, 0.3 mM KH2PO4, 138 mM NaCl, 4 mM NaHO3, 0.3 mM Na2HCO3, 0.3 mM Na2HPO4, 5.6 mM glucose and 10 mM Hepes, pH 7.4) containing complete protease inhibitor cocktail (1 tablet/10 ml, ROCHE®, Indianapolis, Ind.)) and phosphatase inhibitor cocktail (SIGMA®, 1:100). After centrifugation (13000 rpm; 15 min at 4° C.), the membrane protein fraction was prepared by suspending the membrane pellets in lysis buffer containing 0.3 M NaCl, 50 mM Tris-HCl (pH 7.6) and 0.5% Triton X-100 and the same concentration of protease inhibitors as above. The suspensions were incubated on ice and centrifuged (13000 rpm; 15 min at 4° C.). The protein concentrations of the combined supernatants were determined using the PIERCE® BCA protein assay (THERMO SCIENTIFIC®, Rockford, Ill.). After denaturation (100° C. for 5 min) in the presence of Laemmli sample buffer, lysate from each sample was separated on a 4-15% TGX Stain-Free SDS-PAGE gel (BIO-RAD® Laboratories, Hercules, Calif.). As a loading control, total protein per sample was determined using Bio-Rad® Stain Free SDS-PAGE gel technology. UV-activated protein fluorescence was imaged on a CHEMIDOC® MP (BIO-RAD®). […] The volume (intensity) of each protein species was determined and normalized to total protein using Image Lab software (BIO-RAD®).
# [5] = test system: parkin; assay: Western immunoblotting, parkin; assay type: in vivo, rat; conditions: aged rats; oral 8-AG 5 mg/kg/day, 6 weeks
# Protocol: as §1
# [6] = test system: bladder wall; assay: Bladder volume measurements (bladder wall volume / thickness); assay type: in vivo, rat
# Protocol: Bladder volume measurements: Changes in bladder wall thickness in all groups (young, aged, and aged+treatment) were measured by placing displacement markers on the bladder surface (in situ) while volume measurements were recorded. Custom computer algorithms were used to calculate longitudinal, circumferential, and area strain from measurements of surface marker positions.
smiles,measurement,setting,value
"Nc1nc2[nH]c(N)nc2c(=O)[nH]1 [8-AG, 8-Aminoguanine]",Rac 1 inhibition (mechanism of reduced potassium excretion),[1],inhibiting
same,bladder compliance (stress-stretch curve),"[2]; oral 8-AG 5 mg/kg/day, 6 weeks","more extensible (or compliant) bladder; also recorded: more extensible, compliant bladder"
same,collagen fiber tortuosity in the detrusor layer,"[2]; oral 8-AG 5 mg/kg/day, 6 weeks",increased; also recorded: restored fiber tortuosity to that of younger rats
same,collagen fiber tortuosity in the lamina propria,"[2]; oral 8-AG 5 mg/kg/day, 6 weeks",increased; also recorded: Normalizing; also recorded: restored fiber tortuosity to that of younger rats
same,critical stretch at which the steep increase in bladder stiffness occurs,[2]; oral 8-AG for 1 week and 4 weeks,recovered to levels found in young rats
same,urethral nitrotyrosine,[3],normalized to a younger state
same,EUS cleaved PARP,[4],restored to a younger state
same,cleaved PARP in detrusor smooth muscle,[4],levels similar to the younger state; also recorded: restored these biomarkers to that of a younger state
same,urethral cleaved PARP,[4],normalized to a younger state
same,parkin in bladder mucosa,[5],reversed or restored to levels similar to the younger state; also recorded: restored changes similar to a younger state
same,bladder wall volume,"[6]; aged Fisher 344 rats, 8-AG 5 mg kg/day via drinking water, 1 month",restored to that of a younger state
same,bladder wall width / thickness,"[6]; aged rats, oral 8-AG 5 mg/kg/day, 6 weeks",restored to that of a younger state
